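Where inhibition never reached the appropriate level, the endpoint shown equals the highest concentration tested. Otherwise, values were interpolated linearly from a five-concentration, 48-hour dose response in 96-well plates. TGI is the concentration that stops growth completely.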
How the values were obtained:
Assay in all cases: growth of human tumour cells (NCI), 48 h
786-0 renal = system: 786-0 renal
A498 renal = system: A498 renal
A549 NSCLC = system: A549 NSCLC
ACHN renal = system: ACHN renal
BT-549 breast = system: BT-549 breast
CAKI-1 renal = system: CAKI-1 renal
CCRF-CEM leukemia = system: CCRF-CEM leukemia
COLO 205 colon = system: COLO 205 colon
DU-145 prostate = system: DU-145 prostate
EKVX NSCLC = system: EKVX NSCLC
HCC-2998 colon = system: HCC-2998 colon
HCT-116 colon = system: HCT-116 colon
HCT-15 colon = system: HCT-15 colon
HL-60(TB) leukemia = system: HL-60(TB) leukemia
HOP-62 NSCLC = system: HOP-62 NSCLC
HOP-92 NSCLC = system: HOP-92 NSCLC
HS 578T breast = system: HS 578T breast
HT29 colon = system: HT29 colon
IGROV1 ovarian = system: IGROV1 ovarian
K-562 leukemia = system: K-562 leukemia
KM12 colon = system: KM12 colon
LOX IMVI melanoma = system: LOX IMVI melanoma
M14 melanoma = system: M14 melanoma
MALME-3M melanoma = system: MALME-3M melanoma
MCF7 breast = system: MCF7 breast
MDA-MB-231 breast = system: MDA-MB-231 breast
MDA-MB-435 = system: MDA-MB-435
MDA-N = system: MDA-N
MOLT-4 leukemia = system: MOLT-4 leukemia
NCI-H226 lung = system: NCI-H226 lung
NCI-H23 lung = system: NCI-H23 lung
NCI-H460 lung = system: NCI-H460 lung
NCI-H522 lung = system: NCI-H522 lung
NCI/ADR-RES ovarian = system: NCI/ADR-RES ovarian
OVCAR-3 ovarian = system: OVCAR-3 ovarian
OVCAR-5 ovarian = system: OVCAR-5 ovarian
OVCAR-8 ovarian = system: OVCAR-8 ovarian
PC-3 prostate = system: PC-3 prostate
RPMI-8226 leukemia = system: RPMI-8226 leukemia
RXF 393 renal = system: RXF 393 renal
SF-268 CNS = system: SF-268 CNS
SF-295 CNS = system: SF-295 CNS
SF-539 CNS = system: SF-539 CNS
SK-MEL-2 melanoma = system: SK-MEL-2 melanoma
SK-MEL-28 melanoma = system: SK-MEL-28 melanoma
SK-MEL-5 melanoma = system: SK-MEL-5 melanoma
SN12C renal = system: SN12C renal
SNB-19 CNS = system: SNB-19 CNS
SNB-75 CNS = system: SNB-75 CNS
SR leukemia = system: SR leukemia
SW-620 colon = system: SW-620 colon
T-47D breast = system: T-47D breast
TK-10 renal = system: TK-10 renal
U251 CNS = system: U251 CNS
UACC-257 melanoma = system: UACC-257 melanoma
UACC-62 melanoma = system: UACC-62 melanoma
UO-31 renal = system: UO-31 renal
OVCAR-4 ovarian = system: OVCAR-4 ovarian
SK-OV-3 ovarian = system: SK-OV-3 ovarian

CN(C)Cc1cc(N=Nc2ccccc2)ccc1O gave a TGI (786-0 renal) of over 100 µM, a TGI (A498 renal) of 79.1 µM and a TGI (A549 NSCLC) of over 100 µM. It also gave a TGI (ACHN renal) of over 100 µM, a TGI (BT-549 breast) of over 100 µM and a TGI (CAKI-1 renal) of over 100 µM. It also gave a TGI (CCRF-CEM leukemia) of over 100 µM, a TGI (COLO 205 colon) of over 100 µM and a TGI (DU-145 prostate) of over 100 µM. It also gave a TGI (EKVX NSCLC) of over 100 µM, a TGI (HCC-2998 colon) of over 100 µM and a TGI (HCT-116 colon) of over 100 µM. It also gave a TGI (HCT-15 colon) of over 100 µM, a TGI (HL-60(TB) leukemia) of over 100 µM and a TGI (HOP-62 NSCLC) of over 100 µM. The TGI (HOP-92 NSCLC) was over 100 µM, the TGI (HS 578T breast) was over 100 µM and the TGI (HT29 colon) was over 100 µM. The TGI (IGROV1 ovarian) was over 100 µM, the TGI (K-562 leukemia) was 58.1 µM and the TGI (KM12 colon) was over 100 µM. It also gave a TGI (LOX IMVI melanoma) of over 100 µM, a TGI (M14 melanoma) of over 100 µM and a TGI (MALME-3M melanoma) of over 100 µM. It also gave a TGI (MCF7 breast) of over 100 µM, a TGI (MDA-MB-231 breast) of over 100 µM and a TGI (MDA-MB-435) of over 100 µM. For the same molecule, the TGI (MDA-N) was over 100 µM, the TGI (MOLT-4 leukemia) was over 100 µM and the TGI (NCI-H226 lung) was over 100 µM. The TGI (NCI-H23 lung) was over 100 µM, the TGI (NCI-H460 lung) was over 100 µM and the TGI (NCI-H522 lung) was 73.9 µM. For the same molecule, the TGI (NCI/ADR-RES ovarian) was over 100 µM, the TGI (OVCAR-3 ovarian) was over 100 µM and the TGI (OVCAR-5 ovarian) was over 100 µM. The TGI (OVCAR-8 ovarian) was over 100 µM, the TGI (PC-3 prostate) was over 100 µM and the TGI (RPMI-8226 leukemia) was over 100 µM. For the same molecule, the TGI (RXF 393 renal) was 69.2 µM, the TGI (SF-268 CNS) was over 100 µM and the TGI (SF-295 CNS) was over 100 µM. The TGI (SF-539 CNS) was over 100 µM, the TGI (SK-MEL-2 melanoma) was over 100 µM and the TGI (SK-MEL-28 melanoma) was over 100 µM. For the same molecule, the TGI (SK-MEL-5 melanoma) was 29.4 µM, the TGI (SN12C renal) was over 100 µM and the TGI (SNB-19 CNS) was over 100 µM. The TGI (SNB-75 CNS) was over 100 µM, the TGI (SR leukemia) was over 100 µM and the TGI (SW-620 colon) was over 100 µM. It also gave a TGI (T-47D breast) of over 100 µM, a TGI (TK-10 renal) of over 100 µM and a TGI (U251 CNS) of over 100 µM. It also gave a TGI (UACC-257 melanoma) of 76.9 µM, a TGI (UACC-62 melanoma) of 69.2 µM and a TGI (UO-31 renal) of 89.6 µM.
O=C(Oc1ccc(S(=O)(=O)F)cc1F)c1ccccc1Cl showed a TGI (786-0 renal) of over 100 µM, a TGI (A498 renal) of over 100 µM and a TGI (A549 NSCLC) of over 100 µM. The TGI (ACHN renal) was over 100 µM, the TGI (BT-549 breast) was over 100 µM and the TGI (CAKI-1 renal) was over 100 µM. It also gave a TGI (COLO 205 colon) of 44.6 µM, a TGI (DU-145 prostate) of over 100 µM and a TGI (EKVX NSCLC) of 72.3 µM. It also gave a TGI (HCC-2998 colon) of over 100 µM, a TGI (HCT-116 colon) of over 100 µM and a TGI (HCT-15 colon) of over 100 µM. For the same molecule, the TGI (HL-60(TB) leukemia) was over 100 µM, the TGI (HOP-62 NSCLC) was over 100 µM and the TGI (HOP-92 NSCLC) was 65.1 µM. It also gave a TGI (HS 578T breast) of 65.2 µM, a TGI (HT29 colon) of 72.9 µM and a TGI (IGROV1 ovarian) of over 100 µM. For the same molecule, the TGI (K-562 leukemia) was over 100 µM, the TGI (KM12 colon) was 60.9 µM and the TGI (LOX IMVI melanoma) was over 100 µM. For the same molecule, the TGI (M14 melanoma) was over 100 µM, the TGI (MALME-3M melanoma) was 86.4 µM and the TGI (MCF7 breast) was 83.9 µM. For the same molecule, the TGI (MDA-MB-231 breast) was 58 µM, the TGI (MDA-MB-435) was 74.6 µM and the TGI (MDA-N) was over 100 µM. The TGI (NCI-H226 lung) was over 100 µM, the TGI (NCI-H23 lung) was 53.9 µM and the TGI (NCI-H460 lung) was 70.5 µM. For the same molecule, the TGI (NCI-H522 lung) was 42 µM, the TGI (NCI/ADR-RES ovarian) was over 100 µM and the TGI (OVCAR-3 ovarian) was 75.6 µM. It also gave a TGI (OVCAR-4 ovarian) of 94.5 µM, a TGI (OVCAR-5 ovarian) of over 100 µM and a TGI (OVCAR-8 ovarian) of over 100 µM. For the same molecule, the TGI (PC-3 prostate) was over 100 µM, the TGI (RPMI-8226 leukemia) was 45.6 µM and the TGI (RXF 393 renal) was 64.5 µM. The TGI (SF-268 CNS) was over 100 µM, the TGI (SF-295 CNS) was 89.4 µM and the TGI (SF-539 CNS) was 62.1 µM. For the same molecule, the TGI (SK-MEL-2 melanoma) was over 100 µM, the TGI (SK-MEL-28 melanoma) was over 100 µM and the TGI (SK-MEL-5 melanoma) was 31.1 µM. It also gave a TGI (SK-OV-3 ovarian) of over 100 µM, a TGI (SN12C renal) of over 100 µM and a TGI (SNB-19 CNS) of 87.2 µM. The TGI (SNB-75 CNS) was 74.2 µM, the TGI (SR leukemia) was 55.8 µM and the TGI (SW-620 colon) was over 100 µM. For the same molecule, the TGI (T-47D breast) was 84.3 µM, the TGI (TK-10 renal) was over 100 µM and the TGI (U251 CNS) was over 100 µM. It also gave a TGI (UACC-257 melanoma) of 78.8 µM, a TGI (UACC-62 melanoma) of over 100 µM and a TGI (UO-31 renal) of 40 µM.
Molecule O=S(=O)(Nc1ccccc1)c1ccc(-c2c3nc(c(-c4ccc(S(=O)(=O)Nc5ccccc5)cc4)c4ccc([nH]4)c(-c4ccc(S(=O)(=O)Nc5ccccc5)cc4)c4nc(c(-c5ccc(S(=O)(=O)Nc6ccccc6)cc5)c5ccc2[nH]5)C=C4)C=C3)cc1 has a TGI (786-0 renal) of over 31.6 µM, a TGI (A498 renal) of over 31.6 µM and a TGI (A549 NSCLC) of over 31.6 µM. The TGI (ACHN renal) was 22.4 µM, the TGI (BT-549 breast) was over 31.6 µM and the TGI (CAKI-1 renal) was over 31.6 µM. It also gave a TGI (CCRF-CEM leukemia) of over 31.6 µM, a TGI (COLO 205 colon) of over 31.6 µM and a TGI (DU-145 prostate) of over 31.6 µM. The TGI (EKVX NSCLC) was over 31.6 µM, the TGI (HCC-2998 colon) was over 31.6 µM and the TGI (HCT-116 colon) was over 31.6 µM. It also gave a TGI (HCT-15 colon) of over 31.6 µM, a TGI (HL-60(TB) leukemia) of over 31.6 µM and a TGI (HOP-92 NSCLC) of over 31.6 µM. For the same molecule, the TGI (HS 578T breast) was over 31.6 µM, the TGI (HT29 colon) was over 31.6 µM and the TGI (IGROV1 ovarian) was over 100 µM. It also gave a TGI (K-562 leukemia) of over 31.6 µM, a TGI (KM12 colon) of over 31.6 µM and a TGI (M14 melanoma) of 23.6 µM. The TGI (MALME-3M melanoma) was over 31.6 µM, the TGI (MCF7 breast) was over 31.6 µM and the TGI (MDA-MB-231 breast) was over 31.6 µM. It also gave a TGI (MDA-MB-435) of over 31.6 µM, a TGI (MDA-N) of over 31.6 µM and a TGI (MOLT-4 leukemia) of over 31.6 µM. For the same molecule, the TGI (NCI-H226 lung) was over 100 µM, the TGI (NCI-H23 lung) was over 31.6 µM and the TGI (NCI-H460 lung) was 16.2 µM. The TGI (NCI-H522 lung) was over 31.6 µM, the TGI (NCI/ADR-RES ovarian) was over 31.6 µM and the TGI (OVCAR-4 ovarian) was 24.6 µM. For the same molecule, the TGI (OVCAR-5 ovarian) was over 31.6 µM, the TGI (OVCAR-8 ovarian) was over 31.6 µM and the TGI (PC-3 prostate) was over 31.6 µM. For the same molecule, the TGI (RXF 393 renal) was over 31.6 µM, the TGI (SF-268 CNS) was over 31.6 µM and the TGI (SF-295 CNS) was over 31.6 µM. The TGI (SF-539 CNS) was over 31.6 µM, the TGI (SK-MEL-2 melanoma) was over 31.6 µM and the TGI (SK-MEL-5 melanoma) was over 31.6 µM. The TGI (SK-OV-3 ovarian) was over 31.6 µM, the TGI (SN12C renal) was over 31.6 µM and the TGI (SNB-19 CNS) was over 31.6 µM. For the same molecule, the TGI (SNB-75 CNS) was over 31.6 µM, the TGI (SR leukemia) was over 31.6 µM and the TGI (SW-620 colon) was over 31.6 µM. It also gave a TGI (T-47D breast) of over 31.6 µM, a TGI (TK-10 renal) of over 31.6 µM and a TGI (U251 CNS) of over 31.6 µM. It also gave a TGI (UACC-257 melanoma) of over 31.6 µM, a TGI (UACC-62 melanoma) of over 31.6 µM and a TGI (UO-31 renal) of over 31.6 µM.

From PubChem BioAssay (NCI)
